Laboratory results from ChEMBL document CHEMBL1269006, “Synthetic human serum albumin Sudlow I binding site mimics” (J Med Chem, 2010).

Assay: Displacement of [3H](S)-warfarin from methacrylic acid-ethylene dimethacrylate copolymer

Compound | EC50 [µM] | logEC50
CC(=O)CC(c1ccc(Cl)cc1)c1c(O)c2ccccc2oc1=O (stereo unspecified) [COUMACHLOR] | 165 | -3.78
O=c1ccc2ccccc2o1 [COUMARIN] | 1290 | -2.89
CC(=O)CC(c1ccccc1)c1c(O)c2ccccc2oc1=O (stereo unspecified) [WARFARIN] | 89.6 | -4.05
